Measurements as given in patent US4959493A, “Carboxycyclopropylglycine and process for producing the same” (Suntory Limited, priority 1987, dated 1990).
Where two headings read alike, the source gives them in different places.

Assays:
[1] = tested on: motoneurons in the isolated spinal cord of a neonatal rat; assay: Depolarization of motoneurons in the isolated spinal cord of a neonatal rat (extracellular records, Evans and Watkins method); assay type: cell-based; conditions: for minimal effective concentration: read-out: MEC (minimum effective concentration for causing depolarizations of motoneurons); for Specific activity: relative to L-glutamic acid = 1; for Effect of Mg++ ions on depolarizing activity: in the presence of Mg++ ions; for Agonist type (glutamate receptor subtype): isolated new-born rat spinal cord
Method: In accordance with the method described in Evans, R. H. and Watkins, J. C., European J. Pharmac., 50 123-129, 1978, the minimum effective concentrations (MEC) of L-glutamic acid and compounds (1), (1a), (1b) and (1c) of the present invention for causing depolarizations of motoneurons in the isolated spinal cord of a neonatal rat under perfusion with an artificial physiological solution ([…] fluid) were measured as extracellular records in the […] root.

[2] = isolated from Aesculus parviflora and Blighia sapida; Fowden et al. 1969; cited from earlier work
[3] = isolated neonatal rat spinal cord perfused with artificial physiological solution, (-) = Ineffective

Which results are given for `N[C@H](C(=O)O)[C@H]1C[C@H]1C(=O)O` [(1c), (2S,3S,4R)-carboxycyclopropylglycine]?
minimal effective concentration [1, 3]: 500 µM; Specific activity ([1]; (-) = Ineffective): 0.5; Undesired effects [2]: hypoglycemia and vomiting

With `N[C@@H](CCC(=O)O)C(=O)O` [L-Glu, L-glutamic acid, reference compound] as the molecule, how does the minimal effective concentration ([1]; Rattus norvegicus) read?
The minimal effective concentration was 100 µM.

And the Specific activity ([1]; (-) = Ineffective)?
The Specific activity was 1.

For `N[C@H](C(=O)O)[C@H]1C[C@@H]1C(=O)O` [(1a), (2S,3S,4S)-carboxycyclopropylglycine], which “Effect of Mg++ ions on depolarizing activity” value [1] is on record?
The value was “Unaffected”.

What about the minimal effective concentration [1, 3] of the same molecule?
The minimal effective concentration was 50 µM.

And the “Agonist type (glutamate receptor subtype)” value [1]?
The value was “agonist of the kainate type”.

What about the Specific activity ([1]; (-) = Ineffective) of the same molecule?
Its Specific activity is 5.

And the Undesired effects [2]?
The Undesired effects was “hypoglycemia and vomiting”.

What does the source list for `N[C@H](C(=O)O)[C@@H]1C[C@@H]1C(=O)O` [Compound (1), (2S,3R,4S)-carboxycyclopropylglycine]?
Potency relative to NMDA ([1]; compared with NMDA activity of 2×10^-5 molar): 5 times; Effect of Mg++ ions on depolarizing activity [1]: activity disappeared; minimal effective concentration [1, 3]: 1 µM; Agonist type (glutamate receptor subtype) [1]: agonist of the NMDA type; Specific activity ([1]; (-) = Ineffective): 100
